Experimental data taken from patent US8802665B2, “Pyrrolidine derivatives” (Hoffman-La Roche Inc., priority 2012, dated 2014).

target: human Cat S (Homo sapiens (Human), UniProt P25774); test: Cathepsin enzyme inhibition assay (fluorogenic peptide substrate cleavage); assay type: biochemical; conditions: human Cathepsin S 1 nM, substrate Z-Val-Val-Arg-AMC 20 μM, pH 6.5; read-out: Ic50 CatS: human
Procedure: Cathepsin Enzyme Inhibition Assay
Enzyme activity is measured by observing the increase in fluorescence intensity caused by cleavage of a peptide substrate containing a fluorophore whose emission is quenched in the intact peptide. • Assay buffer: 100 mM potassium phosphate pH 6.5, EDTA-Na 5 mM, Triton X-100 0.001%, DTT 5 mM. • Enzymes (all at 1 nM): human and mouse Cathepsin S, Cat K, Cat B, Cat L. • Substrate (20 μM): Z-Val-Val-Arg-AMC, except for Cat K which uses Z-Leu-Arg-AMC (both from Bachem). • Z=Benzyloxycarbonyl. • AMC=7-Amino-4-Methyl-Coumarin. • DTT=dithiothreitol. • Final volume: 100 μL. • Excitation 360 nm, Emission 465 nm.
Enzyme is added to the substance dilutions in 96-well microtitre plates and the reaction is started with substrate. Fluorescence emission is measured over 20 minutes, during which time a linear increase is observed in the absence of inhibitor. IC50 are calculated by standard methods.
Inhibition of human Cat S, mouse Cat S, human Cat K, human Cat B, human Cat L and mouse Cat L have been measured separately. The results obtained for human Cat S for representative compounds of the invention are expressed in the following table in μM.

Chain of human Cat S (P25774 115-331): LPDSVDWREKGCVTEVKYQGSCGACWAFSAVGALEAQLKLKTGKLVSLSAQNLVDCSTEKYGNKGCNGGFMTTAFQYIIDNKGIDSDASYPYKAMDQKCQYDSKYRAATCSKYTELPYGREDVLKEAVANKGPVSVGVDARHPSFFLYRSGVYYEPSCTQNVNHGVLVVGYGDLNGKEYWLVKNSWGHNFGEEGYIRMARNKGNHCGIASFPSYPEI

Row | IC50 [nM] | SMILES
1 | 0.5 | N#CC1(NC(=O)[C@@H]2C[C@@H](S(=O)(=O)c3ccccc3Cl)CN2C(=O)C2(N3CCCCC3)CC2)CC1 [Example 25, (2S,4R)-4-(2-Chlorophenylsulfonyl)-N-(1-cyanocyclopropyl)-1-(1-(piperidin-1-yl)cyclopropanecarbonyl)pyrrolidine-2-carboxamide]
2 | 0.4 | CC1CCCN(C2(C(=O)N3C[C@H](S(=O)(=O)c4ccccc4Cl)C[C@H]3C(=O)NC3(C#N)CC3)CC2)C1 (stereo partly drawn) [Example 26, (2S,4R)-4-(2-Chlorophenylsulfonyl)-N-(1-cyanocyclopropyl)-1-(1-(3-methylpiperidin-1-yl)cyclopropanecarbonyl)pyrrolidine-2-carboxamide]
3 | 0.3 | N#CC1(NC(=O)[C@@H]2C[C@@H](S(=O)(=O)c3ccccc3Cl)CN2C(=O)C2(N3CCSCC3)CC2)CC1 [Example 27, (2S,4R)-4-(2-Chlorophenylsulfonyl)-N-(1-cyanocyclopropyl)-1-(1-thiomorpholinocyclopropanecarbonyl)pyrrolidine-2-carboxamide]
4 | 1.2 | N#CC1(NC(=O)[C@@H]2C[C@@H](S(=O)(=O)c3ccccc3Cl)CN2C(=O)C2(N3CCCC3)CC2)CC1 [Example 28, (2S,4R)-4-(2-Chlorophenylsulfonyl)-N-(1-cyanocyclopropyl)-1-(1-(pyrrolidin-1-yl)cyclopropanecarbonyl)pyrrolidine-2-carboxamide]
5 | 2.3 | CC(C)(C)OC(=O)N1CCN(C2(C(=O)N3C[C@H](S(=O)(=O)c4ccccc4Cl)C[C@H]3C(=O)NC3(C#N)CC3)CC2)CC1 [Example 29, tert-Butyl 4-(1-((2S,4R)-4-(2-chlorophenylsulfonyl)-2-(1-cyanocyclopropylcarbamoyl)pyrrolidine-1-carbonyl)cyclopropyl)piperazine-1-carboxylate]
6 | 4.2 | N#CC1(NC(=O)[C@@H]2C[C@@H](S(=O)(=O)c3ccccc3Cl)CN2C(=O)C2(N3CCNCC3)CC2)CC1 [Example 30, (2S,4R)-4-(2-Chlorophenylsulfonyl)-N-(1-cyanocyclopropyl)-1-(1-(piperazin-1-yl)cyclopropanecarbonyl)pyrrolidine-2-carboxamide]
7 | 2.2 | CC(=O)N1CCN(C2(C(=O)N3C[C@H](S(=O)(=O)c4ccccc4Cl)C[C@H]3C(=O)NC3(C#N)CC3)CC2)CC1 [Example 31, (2S,4R)-1-(1-(4-Acetylpiperazin-1-yl)cyclopropanecarbonyl)-4-(2-chlorophenylsulfonyl)-N-(1-cyanocyclopropyl)pyrrolidine-2-carboxamide]

Further lines, the molecule ahead of its results:

Row | SMILES | IC50 [nM]
8 | CS(=O)(=O)N1CCC(N2CCC2C(=O)N2C[C@H](S(=O)(=O)c3ccccc3Cl)C[C@H]2C(=O)NC2(C#N)CC2)CC1 (stereo partly drawn) [Example 12, (2S,4R)-4-(2-Chlorophenylsulfonyl)-N-(1-cyanocyclopropyl)-1-(1-(1-(methylsulfonyl)piperidin-4-yl)azetidine-2-carbonyl)pyrrolidine-2-carboxamide] | 2.7
9 | CCOC(=O)N1CCC(N2CCC2C(=O)N2C[C@H](Sc3ccc(F)cc3Cl)C[C@H]2C(=O)NC2(C#N)CC2)CC1 (some centres unmarked) [Example 13] | 6.7
10 | CCOC(=O)N1CCC(N2CCC2C(=O)N2C[C@H](S(=O)(=O)c3ccc(F)cc3Cl)C[C@H]2C(=O)NC2(C#N)CC2)CC1 (stereo partly drawn) [Example 14, Ethyl 4-(2-((2S,4R)-4-(2-chloro-4-fluorophenylsulfonyl)-2-(1-cyanocyclopropylcarbamoyl)pyrrolidine-1-carbonyl)azetidin-1-yl)piperidine-1-carboxylate] | 1.5
11 | CCOC(=O)N1CCC(N2CCC2C(=O)N2C[C@H](Sc3ccc(Cl)cc3)C[C@H]2C(=O)NC2(C#N)CC2)CC1 (stereo partly drawn) [Example 15, Ethyl 4-(2-((2S,4R)-4-(4-chlorophenylthio)-2-(1-cyanocyclopropylcarbamoyl)pyrrolidine-1-carbonyl)azetidin-1-yl)piperidine-1-carboxylate] | 121
12 | CCOC(=O)N1CCC(N2CCC2C(=O)N2C[C@H](Sc3ccccc3OC)C[C@H]2C(=O)NC2(C#N)CC2)CC1 (stereo partly drawn) [Example 16, Ethyl 4-(2-((2S,4R)-2-(1-cyanocyclopropylcarbamoyl)-4-(2-methoxyphenylthio)pyrrolidine-1-carbonyl)azetidin-1-yl)piperidine-1-carboxylate] | 1740
13 | CCOC(=O)N1CCC(N2CCC2C(=O)N2C[C@H](Sc3ccccc3OC(F)(F)F)C[C@H]2C(=O)NC2(C#N)CC2)CC1 (stereo partly drawn) [Example 17, Ethyl 4-(2-((2S,4R)-2-(1-cyanocyclopropylcarbamoyl)-4-(2-(trifluoromethoxy)phenylthio)pyrrolidine-1-carbonyl)azetidin-1-yl)piperidine-1-carboxylate] | 65.5
14 | CCOC(=O)N1CCC(N2CCC2C(=O)N2C[C@H](Sc3cccc(C(F)(F)F)c3)C[C@H]2C(=O)NC2(C#N)CC2)CC1 (stereo partly drawn) [Example 18, Ethyl 4-(2-((2S,4R)-2-(1-cyanocyclopropylcarbamoyl)-4-(3-(trifluoromethyl)phenylthio)pyrrolidine-1-carbonyl)azetidin-1-yl)piperidine-1-carboxylate] | 8
15 | CCOC(=O)N1CCC(N2CCC2C(=O)N2C[C@H](S(=O)(=O)c3cccc(Cl)c3)C[C@H]2C(=O)NC2(C#N)CC2)CC1 (stereo partly drawn) [Example 19, Ethyl 4-(2-((2S,4R)-4-(3-chlorophenylsulfonyl)-2-(1-cyanocyclopropylcarbamoyl)pyrrolidine-1-carbonyl)azetidin-1-yl)piperidine-1-carboxylate] | 1.8
16 | CCOC(=O)N1CCC(N2CCC2C(=O)N2C[C@H](S(=O)(=O)c3ccc(C)cc3)C[C@H]2C(=O)NC2(C#N)CC2)CC1 (stereo partly drawn) [Example 20, Ethyl 4-(2-((2S,4R)-2-(1-cyanocyclopropylcarbamoyl)-4-tosylpyrrolidine-1-carbonyl)azetidin-1-yl)piperidine-1-carboxylate] | 1.4
17 | CCOC(=O)N1CCC(N2CCC2C(=O)N2C[C@H](S(=O)(=O)c3ccccc3OC)C[C@H]2C(=O)NC2(C#N)CC2)CC1 (stereo partly drawn) [Example 21, Ethyl 4-(2-((2S,4R)-2-(1-cyanocyclopropylcarbamoyl)-4-(2-methoxyphenylsulfonyl)pyrrolidine-1-carbonyl)azetidin-1-yl)piperidine-1-carboxylate] | 9.2
18 | CCOC(=O)N1CCC(N2CCC2C(=O)N2C[C@H](S(=O)(=O)c3ccc(Cl)cc3)C[C@H]2C(=O)NC2(C#N)CC2)CC1 (stereo partly drawn) [Example 22, Ethyl 4-(2-((2S,4R)-4-(4-chlorophenylsulfonyl)-2-(1-cyanocyclopropylcarbamoyl)pyrrolidine-1-carbonyl)azetidin-1-yl)piperidine-1-carboxylate] | 2.8
19 | CCOC(=O)N1CCC(N2CCC2C(=O)N2C[C@H](S(=O)(=O)c3ccccc3OC(F)(F)F)C[C@H]2C(=O)NC2(C#N)CC2)CC1 (stereo partly drawn) [Example 23, Ethyl 4-(2-((2S,4R)-2-(1-cyanocyclopropylcarbamoyl)-4-(2-(trifluoromethoxy)phenylsulfonyl)pyrrolidine-1-carbonyl)azetidin-1-yl)piperidine-1-carboxylate] | 4.1
20 | CCOC(=O)N1CCC(N2CCC2C(=O)N2C[C@H](S(=O)(=O)c3cccc(C(F)(F)F)c3)C[C@H]2C(=O)NC2(C#N)CC2)CC1 (stereo partly drawn) [Example 24, Ethyl 4-(2-((2S,4R)-2-(1-cyanocyclopropylcarbamoyl)-4-(3-(trifluoromethyl)phenylsulfonyl)pyrrolidine-1-carbonyl)azetidin-1-yl)piperidine-1-carboxylate] | 1.6
